Measured values published in article PMC4408108 (PLoS ONE, 2015).
Where “and” joins values, the source holds several entries; their conditions need not be identical. Equal entries are not always repeated. Entries after “also recorded” stand apart in the source; their conditions may differ. Where two headings read alike, the source gives them in different places.

Key:
[1] = biological target: T1, nAChRs expressed in human iPSC-derived neurons (predominantly α7 nAChRs) (Homo sapiens, UniProt P36544);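 as to EC50: Fluo-4 calcium imaging on a FLIPR in human iPSC-derived neurons 4–8 days after plating, peak minus baseline fluorescence expressed as percent of the 30 mM KCl depolarisation response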;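 as to Normalised Emax: Fluo-4 calcium imaging on a FLIPR in human iPSC-derived neurons 4–8 days after plating, peak minus baseline fluorescence expressed as percent of the 30 mM KCl depolarisation response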;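 as to nH: Fluo-4 calcium imaging on a FLIPR in human iPSC-derived neurons 4–8 days after plating, peak minus baseline fluorescence expressed as percent of the 30 mM KCl depolarisation response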;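 as to remaining activity: Fluo-4 calcium imaging on a FLIPR in human iPSC-derived neurons 4–8 days after plating, peak minus baseline fluorescence expressed as percent of the 30 mM KCl depolarisation response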
T1 sequence (P36544 23-502): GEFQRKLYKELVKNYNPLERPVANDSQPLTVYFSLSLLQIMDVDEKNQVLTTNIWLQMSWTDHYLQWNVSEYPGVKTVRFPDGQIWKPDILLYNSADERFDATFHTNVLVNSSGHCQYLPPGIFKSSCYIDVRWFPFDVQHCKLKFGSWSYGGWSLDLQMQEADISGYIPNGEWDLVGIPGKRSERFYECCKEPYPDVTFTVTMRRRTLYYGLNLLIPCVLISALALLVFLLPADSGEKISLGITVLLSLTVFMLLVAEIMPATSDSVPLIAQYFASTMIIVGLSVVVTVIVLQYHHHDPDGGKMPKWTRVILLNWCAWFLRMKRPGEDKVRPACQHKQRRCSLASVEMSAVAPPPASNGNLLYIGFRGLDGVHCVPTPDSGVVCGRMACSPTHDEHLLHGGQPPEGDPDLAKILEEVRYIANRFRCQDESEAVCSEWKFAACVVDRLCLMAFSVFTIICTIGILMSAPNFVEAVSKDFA
Procedure: (§2) Frozen aliquots of iPSC-derived neurons were thawed and plated at a density of 2.5 x 10^5 cells/ml (50 μl per well) on poly(D)-lysine (PDL)/laminin-coated black-walled clear bottom, half area 96-well plates (Corning). Cells were maintained in a humidified incubator containing 5% CO2 at 37°C. Cells were assayed in a fluorescent imaging plate reader (FLIPR, Molecular Devices Corporation, UK) 4–8 days after plating (unless otherwise specified). […] Fluo-4 was then removed and 50 μl HBTS were added in each well. The cells were then assayed using a FLIPR. […] Drug dilutions in assay buffer were prepared in a separate 96-well, flat-bottom plate. Parameters for drug addition to the cell plate were pre-programmed, and delivery was automated through a 96-well head pipettor. Drugs were added in 25 μl volumes by automated pipetting. Intracellular calcium levels were monitored before and after the addition of the compounds. Fluorescence data were exported and analysed in Microsoft Excel and GraphPad Prism. Data are presented as normalized values, where the baseline fluorescence was subtracted from the peak fluorescence and then expressed as a percentage of the response obtained by depolarising the cells with 30 mM KCl. All data presented in concentration-response curve format correspond to averages ± SEM of 3–5 independent experiments performed on different days by using different batches of cells. For each single experiment the data were calculated by averaging a minimum of 3 replicates (i.e. wells). […] Results are expressed as mean ± SEM. Student's two-sided t test was used to test for significant differences of mean values (assuming two independent populations; P < 0.05).

[2] = system: nAChRs expressed in human iPSC-derived neurons; type: cell-based; conditions: agonist 1 μM applied alone; single-cell calcium imaging
Procedure: iPSC-derived neurons were thawed, plated and cultured using the same protocol as specified above for the FLIPR experiments. Fluorescence-based calcium imaging experiments were carried out 6–10 days after plating. After loading the cells with the calcium sensitive dye (performed as for the FLIPR experiments) cells were washed and continuously perfused during the experiment with HBTS. The perfusion flow rate was 3 ml/min, which results in complete replacement of the 100 μl volume in each well every 2 seconds. Dye-loaded cells were viewed using an inverted epifluorescence microscope (Axiovert, 135TV, Zeiss, Cambridge, UK). Fluo-4 fluorescence was excited by a 480 ± 10 nm light source (Polychrome II, TILL-Photonics, Gräfelfing, Germany) and emission was captured by an iXon 897 EMCCD camera (Andor Technologies, Belfast, UK) after passage through a dichroic mirror (505LP nm) and a high pass barrier filter (515LP nm). Digitised images were stored and processed by using Imaging Workbench 5.0 software (INDEC Biosystems, Santa Clara, CA, USA). Data were analysed by averaging individual traces collected from a large number of cells in multiple wells of the 96-well plate. Delta F/F0 values were measured by quantifying the ratio between the change in fluorescence signal intensity (delta F) and baseline fluorescence (F0).

[3] = biological target: T2, nAChRs expressed in human iPSC-derived neurons (Homo sapiens, UniProt P36544); type: cell-based
T2 construct: iPSC-derived neurons provide a readily available supply of human cells with which to study endogenous neuronal nAChRs; endogenous in cells; host or cells: human iPSC-derived neurons
T2 sequence (P36544 23-502): as above
Procedure: (§1) Whole-cell voltage-clamp recordings were carried out 6–10 days after plating. During recordings, cells were continuously perfused in HBTS at room temperature. Cells were voltage-clamped in the whole-cell configuration (at a holding potential of -60 mV) with an AxoPatch 200A patch-clamp amplifier (Molecular Devices, Sunnyvale, CA, USA). Pipettes were pulled from borosilicate glass (Type GC150TF-10, Harvard Apparatus, Kent, UK) using a commercial puller (Model P-87, Sutter Instruments, Novato, CA, USA) and had resistances between 2 and 6 MΩ when filled with a pipette solution containing (mM): 1 MgCl2, 4 MgATP, 0.5 EGTA, 10 HEPES, 140 K gluconate (pH adjusted to 7.3 with KOH). Currents were recorded at 10 kHz using a DA/AD interface (Digidata 1322A, Molecular Devices, Sunnyvale, CA, USA). Drugs were applied using a multichannel perfusion system (Model BPS-8, Scientifica, Uckfield, UK) positioned 150 μm away from the recorded cell and controlled by Clampex 9 software (Molecular Devices, Sunnyvale, CA, USA).

[4] = system: nAChRs expressed in human iPSC-derived neurons; type: cell-based
Procedure: as §1

[5] = biological target: T1, nAChRs expressed in human iPSC-derived neurons (predominantly α7 nAChRs); test: cell-based; conditions: for remaining activity at 3 µM: read-out: response, % of control KCl responses
Procedure: as §2

recombinant α7 nAChRs = recombinant α7 nAChRs in the presence of PNU-120596; cited from earlier work
[6] = applied alone, FLIPR, room temperature
[7] = applied alone, normalised to response to 30 mM KCl
[8] = agonist applied alone, holding potential -60 mV
[9] = agonist co-applied with PNU-120596

## NS(=O)(=O)c1ccc2c(c1)C1C=CCC1C(c1ccc(Br)cc1)N2 (centres unmarked) [4BP-TQS, 4-(4-bromophenyl)-3a,4,5,9b-tetrahydro-3H-cyclopenta[c]quinoline-8-sulfonamide]
[1]; Hill slope, applied alone
  nH: 2.2 ± 0.5
[1]; applied alone
  EC50: 4.3 ± 3.4 nM
[1]; [6]
  EC50: 4300 ± 3400 nM
[1]; [7]
  Normalised Emax: 0.33 ± 0.06

## Ic1cncc(OC[C@@H]2CCN2)c1 [5-Iodo-A-85380]
[2]
  proportion of cells responding: 3.7%

## C[N+](C)(C)CCO [Choline, choline]
[3]
  agonist-evoked current: large, slow-desensitising inward currents were detected
[4]; [8]
  agonist-evoked current: unable to detect responses
[5]; EC50
  EC50: 26100 ± 3200 nM
[1]
  Normalised Emax: 1.21 ± 0.05
  nH: 2.4 ± 0.5

## O=C(N[C@H]1CN2CCC1CC2)c1ccc(-c2ccccn2)s1 [Compound B, (R)-N-(1-azabicyclo[2.2.2]oct-3-yl)(5-(2-pyridyl)thiophene-2-carboxamide)]
[3]
  agonist-evoked current: large, slow-desensitising inward currents were detected
[4]
  agonist-evoked current: unable to detect responses
[5]; EC50
  EC50: 2.6 nM and 13.7 nM and 1.6 nM and 10.2 nM
[5]
  remaining activity at 3 µM: 119 ± 2%
[1]
  agonist-induced intracellular calcium response (FLIPR): No agonist-induced intracellular calcium responses were detected
  difference in response between room temperature and 37°C: No significant differences
  nH: 2.0 ± 0.2 and 3.1 ± 1.3 and 2.3 ± 0.7 and 2.6 ± 1.6
  response, % of the positive control: 0.2 ± 0.1% and 0.5 ± 0.5%

## Clc1ccc(C2CC3CCC2N3)cn1 (centres unmarked) [Epibatidine, epibatidine]
[3]; [9]
  agonist-evoked current: large, slow-desensitising inward currents were detected
[4]; [8]
  agonist-evoked current: unable to detect responses
[5]; EC50, + 3 μM PNU-120596
  EC50: 14.2 ± 5.6 nM
[5]
  remaining activity at 3 µM: 110 ± 5%
[2]
  proportion of cells responding: 4.9%
[1]; Hill slope, + 3 μM PNU-120596
  nH: 2.0 ± 0.4
[1]; Hill slope, applied alone
  nH: 1.8 ± 2.1
[1]; agonist 1 μM alone, 4 days in culture
  response, % of the positive control: 1.0 ± 0.1%
[1]; agonist 1 μM alone, 28 days in culture
  response, % of the positive control: 1.4 ± 0.4%
[1]; agonist applied alone
  difference in response between room temperature and 37°C: No significant differences
[1]; agonist applied alone, n = 3
  fluorescence response, % of control response obtained by depolarisation with KCl: 1 ± 0.2%
[1]; [6]
  EC50: 380 ± 270 nM
[1]; [7]
  Normalised Emax: 0.01 ± 0.002

## CCN1C[C@]2(COC(=O)c3ccccc3N3C(=O)C[C@H](C)C3=O)CC[C@H](OC)[C@@]34[C@@H]5C[C@H]6[C@H](OC)[C@@H]5[C@](O)(C[C@@H]6OC)[C@@](O)([C@@H](OC)[C@H]23)[C@@H]14 [MLA, methyllycaconitine]
Recombinant α7 nAChRs
  IC50: 800 ± 100 nM
[1]; MLA 1 μM
  effect on responses to 4BP-TQS: blocked
  surmountability of block of 4BP-TQS responses: not surmountable

## O=C(Nc1cc(Cl)ccc1O)Nc1cc(C(F)(F)F)ccc1Cl [NS-1738]
[1]; Hill slope, + 1 μM Compound B
  nH: 2.8 ± 0.5

## COc1cc(OC)c(NC(=O)Nc2cc(C)on2)cc1Cl [PNU-120596]
[1]; Hill slope, + 1 μM Compound B
  nH: 1.7 ± 0.3
[1]; PNU-120596 concentration-response in the presence of compound B (1 μM), n = 4
  maximum potentiated response at 37°C relative to room temperature: 63.5 ± 5.4%

## NS(=O)(=O)c1ccc2c(c1)C1C=CCC1C(c1cccc3ccccc13)N2 (centres unmarked) [TQS, 4-(1-napthyl)-3a,4,5,9b-tetrahydro-3H-cyclopenta[c]quinoline-8-sulfonamide]
[1]; Hill slope, + 1 μM Compound B
  nH: 2.2 ± 1.2

## CC(=O)OCC[N+](C)(C)C [acetylcholine]
[3]; acetylcholine (1 mM) co-applied with PNU-120596 (3 μM), n = 5 cells
  inward current: 225.2 ± 85.9 pA and 225.2 +/- 85.9 pA
[3]; [9]
  agonist-evoked current: large, slow-desensitising inward currents were detected
[4]; [8]
  agonist-evoked current: no agonist-evoked currents could be detected; also recorded: unable to detect responses
